Measured values as given in ChEMBL document CHEMBL1938322, “Towards a modern definition of vitamin E-evidence for a quinone hypothesis” (Bioorg Med Chem Lett, 2012).
Converted amounts (≈) assume the structure as drawn.

Experiments:
[1] = Growth inhibition of human FRDA primary patient fibroblasts after 48 hrs by calcein-AM-based cell viability assay; set-up: species or system Fibroblast; conditions: for GI50 at 48 h: FRDA primary patient fibroblasts
[2] = molecular target: Cytochrome P450 2C19 (Homo sapiens, UniProt P33261); experiment: Inhibition of CYP2C19 at 10 uM; assay type: ADME
[3] = molecular target: Cytochrome P450 2C9 (Homo sapiens, UniProt P11712); experiment: Inhibition of CYP2C9 at 10 uM; assay type: ADME
[4] = AUC (0 to infinity) in mouse plasma at 10 mg/kg, po by HPLC analysis; assay type: ADME, organism-based; set-up: time infinity, dose 10 mg/kg, route oral
[5] = AUCt in mouse plasma at 10 mg/kg, po by HPLC analysis; assay type: ADME, organism-based; set-up: dose 10 mg/kg, route oral
[6] = system: Fibroblast; experiment: Ratio of alpha-tocopherol EC50 to compound EC50 for cytoprotection against BSO-induced human FRDA primary patient fibroblasts; assay type: functional
[7] = Half life in mouse plasma at 5 mg/kg, iv by HPLC analysis; assay type: ADME, organism-based; set-up: dose 5 mg/kg, route intravenous
[8] = Half life in mouse plasma at 10 mg/kg, po by HPLC analysis; assay type: ADME, organism-based; set-up: dose 10 mg/kg, route oral
[9] = system: Rattus norvegicus; experiment: Toxicity in Wistar rat assessed as changes in body weight up to 2000 mg/kg, qd for 14 days; assay type: organism-based; set-up: dose 2000 mg/kg; conditions: in vivo, 336 h
[10] = Cmax in dog plasma at 25 mg/kg, po by HPLC analysis; assay type: ADME, organism-based, Canis lupus familiaris; set-up: dose 25 mg/kg, route oral
[11] = species on record: Rattus norvegicus; experiment: Prolongation of partial thromboplastin time in male Wistar rat; assay type: ADME, organism-based; conditions: in vivo
[12] = Cmax in rat plasma at 100 mg/kg, po by HPLC analysis; assay type: ADME, organism-based; set-up: dose 100 mg/kg, route oral
[13] = Tmax in dog plasma at 25 mg/kg, po by HPLC analysis; assay type: ADME, organism-based, Canis lupus familiaris; set-up: dose 25 mg/kg, route oral
[14] = Therapeutic index, ratio of LC50 to GI50 for human FRDA primary patient fibroblasts; assay type: cell-based, Fibroblast; conditions: for selectivity ratio: FRDA primary patient fibroblasts, read-out: TI
[15] = Clearance in mouse plasma at 5 mg/kg, iv by HPLC analysis; assay type: ADME, organism-based; set-up: dose 5 mg/kg, route intravenous
[16] = AUC (0 to infinity) in rat plasma at 100 mg/kg, po by HPLC analysis; assay type: ADME, organism-based; set-up: time infinity, dose 100 mg/kg, route oral
[17] = Oral bioavailability in mouse plasma at 10 mg/kg by HPLC analysis; assay type: ADME, organism-based
[18] = Tmax in rat plasma at 100 mg/kg, po by HPLC analysis; assay type: ADME, organism-based; set-up: dose 100 mg/kg, route oral
[19] = system: CHO; experiment: Induction of micronucleation in CHO cells; assay type: cell-based, Cricetulus griseus; conditions: chinese hamster
[20] = Half life in dog plasma at 25 mg/kg, po by HPLC analysis; assay type: ADME, organism-based, Canis lupus familiaris; set-up: dose 25 mg/kg, route oral
[21] = AUCt in dog plasma at 25 mg/kg, po by HPLC analysis; assay type: ADME, organism-based, Canis lupus familiaris; set-up: dose 25 mg/kg, route oral
[22] = system: Fibroblast; experiment: Ratio of idebenone EC50 to compound EC50 for cytoprotection against BSO-induced human FRDA primary patient fibroblasts; assay type: functional
[23] = Half life in rat plasma at 100 mg/kg, po by HPLC analysis; assay type: ADME, organism-based; set-up: dose 100 mg/kg, route oral
[24] = AUC (0 to infinity) in mouse plasma at 5 mg/kg, iv by HPLC analysis; assay type: ADME, organism-based; set-up: time infinity, dose 5 mg/kg, route intravenous
[25] = AUCt in rat plasma at 100 mg/kg, po by HPLC analysis; assay type: ADME, organism-based; set-up: dose 100 mg/kg, route oral
[26] = system: Rattus norvegicus; experiment: Toxicity in Wistar rat assessed as changes in food intake up to 2000 mg/kg, qd for 14 days; assay type: organism-based; set-up: dose 2000 mg/kg; conditions: in vivo, 336 h
[27] = Growth inhibition of human primary fibroblasts after 48 hrs by calcein-AM-based cell viability assay; set-up: species or system Fibroblast
[28] = Solubility of the compound; assay type: physicochemical
[29] = AUC (0 to infinity) in dog plasma at 25 mg/kg, po by HPLC analysis; assay type: ADME, organism-based, Canis lupus familiaris; set-up: time infinity, dose 25 mg/kg, route oral
[30] = molecular target: T1, Cytochrome P450 1A2 (Homo sapiens, UniProt P05177); experiment: Inhibition of CYP1A2 at 10 uM; assay type: ADME
T1 sequence (P05177 whole entry): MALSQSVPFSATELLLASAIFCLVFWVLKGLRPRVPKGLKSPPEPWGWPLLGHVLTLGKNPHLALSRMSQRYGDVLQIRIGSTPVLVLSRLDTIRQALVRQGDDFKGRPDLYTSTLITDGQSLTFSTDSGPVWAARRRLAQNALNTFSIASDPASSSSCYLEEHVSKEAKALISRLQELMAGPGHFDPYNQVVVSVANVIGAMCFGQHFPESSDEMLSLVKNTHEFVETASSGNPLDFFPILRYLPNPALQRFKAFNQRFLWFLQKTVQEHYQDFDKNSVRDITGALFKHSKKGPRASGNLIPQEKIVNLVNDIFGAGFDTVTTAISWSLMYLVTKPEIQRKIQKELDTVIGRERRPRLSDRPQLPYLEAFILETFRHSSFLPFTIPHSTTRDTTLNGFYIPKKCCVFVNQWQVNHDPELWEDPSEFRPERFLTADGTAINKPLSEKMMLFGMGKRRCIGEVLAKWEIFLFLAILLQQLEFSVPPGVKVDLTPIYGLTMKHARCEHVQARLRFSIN

[31] = system: Salmonella typhimurium; experiment: Mutagenic activity in Salmonella Typhimurium by Ames test; assay type: toxicity, organism-based; conditions: salmonella enterica subsp. enterica serovar typhimurium
[32] = system: Rattus norvegicus; experiment: Toxicity in Wistar rat assessed as changes in water intake up to 2000 mg/kg, qd for 14 days; assay type: organism-based; set-up: dose 2000 mg/kg; conditions: in vivo, 336 h
[33] = AUCt in mouse plasma at 5 mg/kg, iv by HPLC analysis; assay type: ADME, organism-based; set-up: dose 5 mg/kg, route intravenous
[34] = system: Fibroblast; experiment: Cytoprotective activity against BSO-induced human FRDA primary patient fibroblasts compound pretreated 12 hrs prior to BSO-induction measured after 48 hrs by calcein-AM-based cell viability assay; assay type: functional
[35] = system: Fibroblast; experiment: Ratio of CoQ10 EC50 to compound EC50 for cytoprotection against BSO-induced human FRDA primary patient fibroblasts; assay type: functional
[36] = species on record: Rattus norvegicus; experiment: Prolongation of partial thromboplastin time in female Wistar rat; assay type: ADME, organism-based; conditions: in vivo
[37] = molecular target: Cytochrome P450 3A4 (Homo sapiens, UniProt P08684); experiment: Inhibition of […] at 10 uM; assay type: ADME
[38] = Volume of distribution in mouse plasma at 5 mg/kg, iv by HPLC analysis; assay type: ADME, organism-based; set-up: dose 5 mg/kg, route intravenous
[39] = Cmax in mouse plasma at 10 mg/kg, po by HPLC analysis; assay type: ADME, organism-based; set-up: dose 10 mg/kg, route oral
[40] = molecular target: Cytochrome P450 2D6 (Homo sapiens, UniProt P10635); experiment: Inhibition of CYP2D6 at 10 uM; assay type: ADME
[41] = Tmax in mouse plasma at 10 mg/kg, po by HPLC analysis; assay type: ADME, organism-based; set-up: dose 10 mg/kg, route oral

Sequence of Cytochrome P450 2C9 (P11712 whole entry): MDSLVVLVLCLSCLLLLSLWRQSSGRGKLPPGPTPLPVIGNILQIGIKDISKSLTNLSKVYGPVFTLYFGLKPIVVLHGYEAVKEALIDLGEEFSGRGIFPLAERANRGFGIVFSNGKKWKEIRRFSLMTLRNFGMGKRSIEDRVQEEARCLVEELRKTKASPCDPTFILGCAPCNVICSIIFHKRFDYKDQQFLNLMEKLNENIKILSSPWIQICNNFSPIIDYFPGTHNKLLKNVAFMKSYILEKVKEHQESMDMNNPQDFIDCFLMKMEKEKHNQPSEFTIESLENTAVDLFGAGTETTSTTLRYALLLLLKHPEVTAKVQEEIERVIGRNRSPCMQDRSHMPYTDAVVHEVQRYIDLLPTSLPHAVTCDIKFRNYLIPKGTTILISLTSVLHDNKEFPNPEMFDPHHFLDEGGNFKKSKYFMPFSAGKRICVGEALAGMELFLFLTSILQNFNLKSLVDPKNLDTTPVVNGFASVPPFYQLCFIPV
Sequence of Cytochrome P450 2D6 (P10635 whole entry): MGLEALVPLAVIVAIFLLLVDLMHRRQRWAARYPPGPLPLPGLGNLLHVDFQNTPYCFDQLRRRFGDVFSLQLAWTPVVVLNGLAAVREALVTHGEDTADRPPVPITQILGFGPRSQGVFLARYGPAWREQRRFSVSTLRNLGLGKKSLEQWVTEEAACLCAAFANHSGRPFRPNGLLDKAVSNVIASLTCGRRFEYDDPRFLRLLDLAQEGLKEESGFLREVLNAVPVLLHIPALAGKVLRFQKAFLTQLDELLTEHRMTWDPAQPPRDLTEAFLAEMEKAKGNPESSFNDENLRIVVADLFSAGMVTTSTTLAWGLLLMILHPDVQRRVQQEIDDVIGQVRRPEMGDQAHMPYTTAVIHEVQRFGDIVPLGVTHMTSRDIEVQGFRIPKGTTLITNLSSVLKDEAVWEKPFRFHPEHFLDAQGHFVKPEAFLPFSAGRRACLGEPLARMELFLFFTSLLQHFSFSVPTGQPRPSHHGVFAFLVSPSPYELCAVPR
Sequence of Cytochrome P450 2C19 (P33261 whole entry): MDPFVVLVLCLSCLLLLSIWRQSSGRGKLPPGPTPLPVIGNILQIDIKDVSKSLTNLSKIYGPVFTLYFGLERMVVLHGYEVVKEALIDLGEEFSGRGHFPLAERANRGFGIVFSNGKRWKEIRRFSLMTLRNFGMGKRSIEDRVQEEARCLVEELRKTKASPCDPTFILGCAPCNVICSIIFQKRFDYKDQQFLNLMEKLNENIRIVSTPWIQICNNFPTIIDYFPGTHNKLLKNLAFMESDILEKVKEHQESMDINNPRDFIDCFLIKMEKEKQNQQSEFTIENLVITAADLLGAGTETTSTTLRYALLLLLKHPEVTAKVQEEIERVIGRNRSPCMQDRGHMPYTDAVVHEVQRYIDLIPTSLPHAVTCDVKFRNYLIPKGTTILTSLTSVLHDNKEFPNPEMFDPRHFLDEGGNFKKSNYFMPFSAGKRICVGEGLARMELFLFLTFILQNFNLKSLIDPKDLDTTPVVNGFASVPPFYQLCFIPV
Sequence of Cytochrome P450 3A4 (P08684 whole entry): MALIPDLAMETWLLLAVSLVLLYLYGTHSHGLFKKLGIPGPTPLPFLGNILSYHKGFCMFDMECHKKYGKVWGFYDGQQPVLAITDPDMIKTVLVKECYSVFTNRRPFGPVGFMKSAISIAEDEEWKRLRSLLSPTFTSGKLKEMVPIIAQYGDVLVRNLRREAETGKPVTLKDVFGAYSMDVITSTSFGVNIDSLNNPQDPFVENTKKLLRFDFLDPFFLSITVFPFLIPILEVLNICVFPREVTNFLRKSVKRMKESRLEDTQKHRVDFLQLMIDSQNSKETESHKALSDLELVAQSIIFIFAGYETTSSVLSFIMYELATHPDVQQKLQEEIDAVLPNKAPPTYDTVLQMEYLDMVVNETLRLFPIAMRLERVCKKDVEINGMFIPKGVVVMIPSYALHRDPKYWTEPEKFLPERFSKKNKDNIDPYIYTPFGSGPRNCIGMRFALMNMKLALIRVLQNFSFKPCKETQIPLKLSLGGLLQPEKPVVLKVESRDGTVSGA

Molecule: COC1=C(OC)C(=O)C(C/C=C(\C)CC/C=C(\C)CC/C=C(\C)CC/C=C(\C)CC/C=C(\C)CC/C=C(\C)CC/C=C(\C)CC/C=C(\C)CC/C=C(\C)CCC=C(C)C)=C(C)C1=O [UBIDECARENONE]
- GI50 at 48 h [1]: 220 µM

Molecule: CC1=C(C)C(=O)C(CC[C@](C)(O)CCC[C@H](C)CCC[C@H](C)CCCC(C)C)=C(C)C1=O
- GI50 at 48 h [1]: ≥ 300 µM
- inhibition (INH) [2]: Not Active
- inhibition (INH) [3]: Not Active
- AUC(0-inf) [4]: 2070 ng·h/mL
- AUC(0-t) [5]: 1980 ng·h/mL
- Ratio EC50 [6]: 7
- half-life [7]: 16.2 h
- half-life [8]: 5.8 h
- Activity [9]: Non-toxic
- Cmax [10]: 2370 ng/mL
- Activity [11]: Dose-dependent effect
- Cmax [12]: 3010 ng/mL
- Tmax [13]: 2 h
- selectivity ratio [14]: ≥ 8330
- clearance [15]: 20 mL/min/kg
- AUC(0-inf) [16]: 27900 ng·h/mL
- bioavailability [17]: 24%
- Tmax [18]: 4 h
- Activity [19]: Non-toxic
- half-life [20]: 23.7 h
- AUC(0-t) [21]: 14200 ng·h/mL
- Ratio EC50 [22]: 35
- half-life [23]: 16.6 h
- AUC(0-inf) [24]: 4240 ng·h/mL
- AUC(0-t) [25]: 26400 ng·h/mL
- Activity [26]: Non-toxic
- GI50 at 48 h [27]: ≥ 300 µM
- solubility [28]: 10 µM (≈ 4.47 µg/mL)
- AUC(0-inf) [29]: 16800 ng·h/mL
- inhibition (INH) [30]: Not Active
- Activity [31]: Non-toxic
- Activity [32]: Non-toxic
- AUC(0-t) [33]: 3980 ng·h/mL
- Activity [34]: Dose-dependent effect
- EC50 ([34]; Homo sapiens, Fibroblast): 0.036 µM
- Ratio EC50 [35]: 200
- Activity [36]: Dose-dependent effect
- inhibition (INH) [37]: Not Active
- Vd [38]: 27.6 L/kg
- Cmax [39]: 519 ng/mL
- inhibition (INH) [40]: Not Active
- Tmax [41]: 1 h

Molecule: COC1=C(OC)C(=O)C(CCCCCCCCCCO)=C(C)C1=O [IDEBENONE]
- GI50 at 48 h [1]: 98 µM
- selectivity ratio [14]: 165
- EC50 ([34]; Homo sapiens, Fibroblast): 0.592 µM

Molecule: VITAMIN E
- GI50 ([1]; fibroblast, 48 h): ≥ 300 µM
- TI ([14]; fibroblast): >= 1282
- EC50 ([34]; fibroblast): 0.234 µM
